Measured values as given in patent publication US9376442B2, “Methylpyrrolopyrimidinecarboxamides” (Takeda GmbH, priority 2009, dated 2016).

Key:
[1] = target: T1, PDE5A1 (Homo sapiens, UniProt O76074); assay: Inhibition of type 5 phosphodiesterase (PDE5) activity, modified SPA test with human platelet lysate; format: biochemical; conditions: 0.5 μM cGMP, read-out: PDE5A1 inhibitory values [measured as −log IC50 (mol/l)] (converted)
T1 construct: from tissue; host or cells: human platelets from fresh donor blood (10,000 x g supernatant of sonicated lysate)
Method in brief: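 Scintillation proximity assay with [3H]cGMP tracer at 0.5 μM total cGMP, stopped after 15 min with beads containing IBMX. PDE3 and PDE2 activities suppressed with motapizone (1 μM) and a PDE2 inhibitor (10 nM). Human platelet supernatant served as the enzyme, with compound preincubated 5 min at 37° C; IC50 values from concentration-effect curves.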

[2] = target: T2, PDE4B1 (Homo sapiens, UniProt Q07343); assay: Inhibition of type 4 phosphodiesterase (PDE4) activity, modified SPA test with recombinant PDE4B1 expressed in SF21 insect cells; format: biochemical; conditions: recombinant PDE4B1, 0.5 μM cAMP, read-out: PDE4B1 inhibitory values [measured as −log IC50 (mol/l)] (converted)
T2 construct: made in house; host or cells: SF21 insect cells (baculovirus; pCRBac vector), 1000 x g supernatant of homogenate
Method in brief: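 Modified [3H]cAMP SPA using 1000×g supernatant of SF21 cells expressing recombinant human PDE4B1, in 20 mM Tris pH 7.4, 0.1 mg/ml BSA, 5 mM Mg2+, 0.5 μM cAMP. After 5 min preincubation at 37 °C, 15 min reaction, stopped with SPA beads plus IBMX; IC50 by non-linear regression.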

T2 sequence (Q07343 whole entry): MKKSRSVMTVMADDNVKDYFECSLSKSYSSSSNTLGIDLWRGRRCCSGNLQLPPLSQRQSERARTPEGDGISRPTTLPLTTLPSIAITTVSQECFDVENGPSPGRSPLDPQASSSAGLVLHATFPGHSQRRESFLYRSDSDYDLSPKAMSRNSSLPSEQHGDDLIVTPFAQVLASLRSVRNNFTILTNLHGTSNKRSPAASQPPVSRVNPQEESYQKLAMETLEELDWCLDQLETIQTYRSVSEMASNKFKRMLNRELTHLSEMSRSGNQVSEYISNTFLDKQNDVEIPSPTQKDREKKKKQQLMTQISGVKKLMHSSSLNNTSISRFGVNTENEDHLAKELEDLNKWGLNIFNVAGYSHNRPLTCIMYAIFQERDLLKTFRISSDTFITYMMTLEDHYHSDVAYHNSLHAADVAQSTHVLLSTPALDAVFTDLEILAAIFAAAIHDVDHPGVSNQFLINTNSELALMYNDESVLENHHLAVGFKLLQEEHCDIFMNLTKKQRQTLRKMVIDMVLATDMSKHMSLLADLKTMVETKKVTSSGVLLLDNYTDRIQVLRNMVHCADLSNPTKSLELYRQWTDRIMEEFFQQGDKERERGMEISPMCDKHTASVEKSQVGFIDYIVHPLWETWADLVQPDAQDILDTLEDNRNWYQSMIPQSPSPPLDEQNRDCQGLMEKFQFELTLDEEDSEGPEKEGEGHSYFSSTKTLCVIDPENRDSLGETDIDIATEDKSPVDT

## CCC(=O)N1C[C@@H](NC(=O)c2c(C)[nH]c3c(-c4cc(C(F)F)ccc4OCC4CC4)ncnc23)C[C@@H]1C [Example P25, 4-[2-(Cyclopropylmethoxy)-5-(difluoromethyl)phenyl]-6-methyl-N-[(3S,5S)-5-methyl-1-propanoylpyrrolidin-3-yl]-5H-pyrrolo[3,2-d]pyrimidine-7-carboxamide]
[1]
  IC50: 1 to 10 nM
[2]
  IC50: < 100 nM

## CC(=O)N[C@H]1CC[C@@H](NC(=O)c2c(C)[nH]c3c(-c4cc(C(F)(F)F)ccc4OCC4CC4)ncnc23)CC1 [Example E96, N-[cis-4-(acetylamino)cyclohexyl]-4-[2-(cyclopropylmethoxy)-5-(trifluoromethyl)phenyl]-6-methyl-5H-pyrrolo[3,2-d]pyrimidine-7-carboxamide]
[1]
  IC50: < 1 nM
[2]
  IC50: 100 to 1000 nM

## Cc1ccc(OCC2CC2)c(-c2ncnc3c(C(=O)N[C@H]4CC[C@H](NC(=O)CO)CC4)c(C)[nH]c23)c1 [Example F53, 4-[2-(Cyclopropylmethoxy)-5-methylphenyl]-N-{trans-4-[(hydroxyacetyl)amino]cyclohexyl}-6-methyl-5H-pyrrolo[3,2-d]pyrimidine-7-carboxamide]
[1]
  IC50: < 1 nM
[2]
  IC50: < 100 nM

## CC(=O)N[C@H]1CC[C@H](NC(=O)c2c(C)[nH]c3c(-c4cc(C(F)(F)F)ccc4OCC4CC4)ncnc23)CC1 [Example E93, N-[trans-4-(acetylamino)cyclohexyl]-4-[2-(cyclopropylmethoxy)-5-(trifluoromethyl)phenyl]-6-methyl-5H-pyrrolo[3,2-d]pyrimidine-7-carboxamide]
[1]
  IC50: < 1 nM
[2]
  IC50: < 100 nM

## COCC(=O)N1CCC(NC(=O)c2c(C)[nH]c3c(-c4cc(C)ccc4OCC4CC4)nc(C)nc23)CC1 [Example E171, 4-[2-(Cyclopropylmethoxy)-5-methylphenyl]-N-[1-(methoxyacetyl)piperidin-4-yl]-2,6-dimethyl-5H-pyrrolo[3,2-d]pyrimidine-7-carboxamide]
[1]
  IC50: < 1 nM
[2]
  IC50: 100 to 1000 nM

## COCC(=O)N[C@H]1CC[C@H](NC(=O)c2c(C)[nH]c3c(-c4cc(C(F)F)ccc4OCC4CC4)ncnc23)C1 [Example P91, 4-[2-(Cyclopropylmethoxy)-5-(difluoromethyl)phenyl]-N-{(1S,3S)-3-[(methoxyacetyl)amino]cyclopentyl}-6-methyl-5H-pyrrolo[3,2-d]pyrimidine-7-carboxamide]
[1]
  IC50: < 1 nM
[2]
  IC50: < 100 nM

## Cc1[nH]c2c(-c3cc(F)ccc3OCC3CC3)ncnc2c1C(=O)NC1CCN(C(=O)CO)CC1 [Example F23, 4-(2-Cyclopropylmethoxy-5-fluoro-phenyl)-6-methyl-5H-pyrrolo[3,2-d]pyrimidine-7-carboxylic acid [1-(2-hydroxy-acetyl)-piperidin-4-yl]-amide]
[1]
  IC50: 1 to 10 nM
[2]
  IC50: 100 to 1000 nM

## COCC(=O)N1CCC(NC(=O)c2c(C)[nH]c3c(-c4cc(F)ccc4OCC4CC4)ncnc23)CC1 [Example E39, 4-(2-Cyclopropylmethoxy-5-fluoro-phenyl)-6-methyl-5H-pyrrolo[3,2-d]pyrimidine-7-carboxylic acid [1-(2-methoxy-acetyl)-piperidin-4-yl]-amide]
[1]
  IC50: 1 to 10 nM
[2]
  IC50: 100 to 1000 nM

## CCC(=O)N[C@H]1CC[C@H](NC(=O)c2c(C)[nH]c3c(-c4cc(C(F)F)ccc4OCC4CC4)ncnc23)CC1 [Example P7, 4-[2-(Cyclopropylmethoxy)-5-(difluoromethyl)phenyl]-6-methyl-N-[trans-4-(propanoylamino)cyclohexyl]-5^H-pyrrolo[3,2-d]pyrimidine-7-carboxamide]
[1]
  IC50: < 1 nM
[2]
  IC50: < 100 nM

## CCc1ccc(OCC2CC2)c(-c2ncnc3c(C(=O)N[C@H]4CC[C@H](NC(=O)CO)CC4)c(C)[nH]c23)c1 [Example F93, 4-[2-(Cyclopropylmethoxy)-5-ethylphenyl]-N-{trans-4-[(hydroxyacetyl)amino]cyclohexyl}-6-methyl-5H-pyrrolo[3,2-d]pyrimidine-7-carboxamide]
[1]
  IC50: < 1 nM
[2]
  IC50: < 100 nM

## CCC(=O)N[C@H]1CC[C@H](NC(=O)c2c(C)[nH]c3c(-c4cc(C(F)F)ccc4OCC4CC4)ncnc23)C1 [Example P90, 4-[2-(Cyclopropylmethoxy)-5-(difluoromethyl)phenyl]-6-methyl-N-[(1S,3S)-3-(propanoylamino)cyclopentyl]-5H-pyrrolo[3,2-d]pyrimidine-7-carboxamide]
[1]
  IC50: < 1 nM
[2]
  IC50: < 100 nM

## Cc1[nH]c2c(-c3cc(C(F)(F)F)ccc3OCC3CC3)ncnc2c1C(=O)NC1CCN(C(=O)[C@H](C)O)CC1 [Example F58, 4-[2-(Cyclopropylmethoxy)-5-(trifluoromethyl)phenyl]-N-{1-[(2S)-2-hydroxypropanoyl]piperidin-4-yl}-6-methyl-5H-pyrrolo[3,2-d]pyrimidine-7-carboxamide]
[1]
  IC50: < 1 nM
[2]
  IC50: 100 to 1000 nM

## CC(=O)N1CCC(NC(=O)c2c(C)[nH]c3c(-c4cc(C)ccc4OCC4CC4)nc(C)nc23)CC1 [Example E169, N-(1-Acetylpiperidin-4-yl)-4-[2-(cyclopropylmethoxy)-5-methylphenyl]-2,6-dimethyl-5H-pyrrolo[3,2-d]pyrimidine-7-carboxamide]
[1]
  IC50: < 1 nM
[2]
  IC50: 100 to 1000 nM

## COCC(=O)N[C@H]1CC[C@H](NC(=O)c2c(C)[nH]c3c(-c4cc(C(F)F)ccc4OCC4CC4)ncnc23)[C@H](F)C1 (relative stereo) [Example P171, 4-[2-(Cyclopropylmethoxy)-5-(difluoromethyl)phenyl]-N-{(1S*,2R*,4S*)-2-fluoro-4-[(methoxyacetyl)amino]cyclohexyl}-6-methyl-5H-pyrrolo[3,2-d]pyrimidine-7-carboxamide]
[1]
  IC50: < 1 nM
[2]
  IC50: < 100 nM

## CCC(=O)N[C@H]1CC[C@@H](NC(=O)c2c(C)[nH]c3c(-c4cc(C)ccc4OCC4CC4)ncnc23)CC1 [Example E88, 4-[2-(Cyclopropylmethoxy)-5-methylphenyl]-6-methyl-N-[cis-4-(propanoylamino)cyclohexyl]-5H-pyrrolo[3,2-d]pyrimidine-7-carboxamide]
[1]
  IC50: < 1 nM
[2]
  IC50: < 100 nM

## COCC(=O)N[C@H]1CC[C@H](NC(=O)c2c(C)[nH]c3c(-c4cc(C(C)C)ccc4OCC4CC4)ncnc23)CC1 [Example E160, 4-[2-(Cyclopropylmethoxy)-5-(propan-2-yl)phenyl]-N-{trans-4-[(methoxyacetyl)amino]cyclohexyl}-6-methyl-5H-pyrrolo[3,2-d]pyrimidine-7-carboxamide]
[1]
  IC50: < 1 nM
[2]
  IC50: 100 to 1000 nM

## CC(=O)N[C@H]1CC[C@H](NC(=O)c2c(C)[nH]c3c(-c4cc(C(F)F)ccc4OCC4CC4)ncnc23)C1 [Example P89, N-[(1S,3S)-3-(Acetylamino)cyclopentyl]-4-[2-(cyclopropylmethoxy)-5-(difluoromethyl)phenyl]-6-methyl-5H-pyrrolo[3,2-d]pyrimidine-7-carboxamide]
[1]
  IC50: < 1 nM
[2]
  IC50: < 100 nM

## CCC(=O)N1C[C@@H](O)[C@H](NC(=O)c2c(C)[nH]c3c(-c4cc(CC)ccc4OCC4CC4)ncnc23)C1 (relative stereo) [Example E155, 4-[2-(Cyclopropylmethoxy)-5-ethylphenyl]-N-[(3R*,4R*)-4-hydroxy-1-propanoylpyrrolidin-3-yl]-6-methyl-5H-pyrrolo[3,2-d]pyrimidine-7-carboxamide]
[1]
  IC50: < 1 nM
[2]
  IC50: 100 to 1000 nM

## CCC(=O)N[C@H]1CC[C@H](NC(=O)c2c(C)[nH]c3c(-c4cc(C(F)F)ccc4OCC4CC4)ncnc23)[C@@H](C)C1 (relative stereo) [Example P140, 4-[2-(Cyclopropylmethoxy)-5-(difluoromethyl)phenyl]-6-methyl-N-[(1S*,2S*,4S*)-2-methyl-4-(propanoylamino)cyclohexyl]-5H-pyrrolo[3,2-d]pyrimidine-7-carboxamide]
[1]
  IC50: < 1 nM
[2]
  IC50: < 100 nM

## COCC(=O)N1CCC(NC(=O)c2c(C)[nH]c3c(-c4cc(OC)ccc4OCC4CC4)ncnc23)CC1 [Example E68, 4-[2-(Cyclopropylmethoxy)-5-methoxyphenyl]-N-[1-(methoxyacetyl)piperidin-4-yl]-6-methyl-5H-pyrrolo[3,2-d]pyrimidine-7-carboxamide]
[1]
  IC50: < 1 nM
[2]
  IC50: 100 to 1000 nM

## COCC(=O)N[C@H]1CC[C@H](NC(=O)c2c(C)[nH]c3c(-c4cc(OC)ccc4OCC4CC4)ncnc23)CC1 [Example E71, 4-[2-(Cyclopropylmethoxy)-5-methoxyphenyl]-N-{trans-4-[(methoxyacetyl)amino]cyclohexyl}-6-methyl-5H-pyrrolo[3,2-d]pyrimidine-7-carboxamide]
[1]
  IC50: < 1 nM
[2]
  IC50: 100 to 1000 nM

## CCC(=O)N[C@H]1CC[C@@H](NC(=O)c2c(C)[nH]c3c(-c4cc(C(F)(F)F)ccc4OCC4CC4)ncnc23)CC1 [Example E97, 4-[2-(Cyclopropylmethoxy)-5-(trifluoromethyl)phenyl]-6-methyl-N-[cis-4-(propanoylamino)cyclohexyl]-5H-pyrrolo[3,2-d]pyrimidine-7-carboxamide]
[1]
  IC50: < 1 nM
[2]
  IC50: < 100 nM

## COCC(=O)N[C@H]1CC[C@H](NC(=O)c2c(C)[nH]c3c(-c4cc(C(F)(F)F)ccc4OCC4CC4)ncnc23)CC1 [Example E95, 4-[2-(Cyclopropylmethoxy)-5-(trifluoromethyl)phenyl]-N-{trans-4-[(methoxyacetyl)amino]cyclohexyl}-6-methyl-5H-pyrrolo[3,2-d]pyrimidine-7-carboxamide]
[1]
  IC50: < 1 nM
[2]
  IC50: < 100 nM
